Assay results taken from BindingDB's records for doi:10.1002/cbic.201200279 (University of Southampton, 2012).
Square brackets hold non-standard residues; d marks the D form. Peptide text beside a SMILES is read from it. NMeY = CN[C@@H](Cc1ccc(O)cc1)C(=O)O

target: Bifunctional purine biosynthesis protein ATIC (Homo sapiens, UniProt P31939); test: Enzyme Inhibition Assay; conditions: 25 °C
Text: Enzyme inhibition using aminoimidazole carboxamide ribonucleotide transformylase/inosine monophosphate cyclohydrolase (ATIC).

Chain of Bifunctional purine biosynthesis protein ATIC (P31939 whole entry): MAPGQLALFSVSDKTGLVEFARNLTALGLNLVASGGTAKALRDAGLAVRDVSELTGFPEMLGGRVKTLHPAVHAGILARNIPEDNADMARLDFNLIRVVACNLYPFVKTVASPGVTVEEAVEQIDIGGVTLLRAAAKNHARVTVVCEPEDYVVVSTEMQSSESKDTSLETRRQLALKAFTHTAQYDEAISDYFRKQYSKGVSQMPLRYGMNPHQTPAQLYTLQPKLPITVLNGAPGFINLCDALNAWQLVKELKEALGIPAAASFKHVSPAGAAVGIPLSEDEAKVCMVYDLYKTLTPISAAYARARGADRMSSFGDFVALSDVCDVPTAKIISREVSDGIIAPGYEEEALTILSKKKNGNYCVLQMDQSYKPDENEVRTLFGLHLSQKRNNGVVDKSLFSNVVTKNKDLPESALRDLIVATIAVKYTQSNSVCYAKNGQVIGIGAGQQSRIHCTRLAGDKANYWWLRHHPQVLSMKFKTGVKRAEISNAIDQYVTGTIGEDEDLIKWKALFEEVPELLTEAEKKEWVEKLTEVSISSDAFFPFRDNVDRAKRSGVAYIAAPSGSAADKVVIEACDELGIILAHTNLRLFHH

SMILES | Ki
CCNC(=O)[C@H](Cc1ccc(O)cc1)NC(=O)[C@H](CCCN=C(N)N)NC(C)=O [RY Analogue, 8] (Ac-Arg-Tyr-NHEt) | 84 µM
CCNC(=O)[C@H](Cc1ccccc1)NC(=O)[C@H](CCCN=C(N)N)NC(C)=O [RY Analogue, 9] | 339 µM
CCNC(=O)[C@H](Cc1ccc(F)cc1)NC(=O)[C@H](CCCN=C(N)N)NC(C)=O [RY Analogue, 10] | 135 µM
CCNC(=O)[C@H](Cc1ccc(OC)cc1)NC(=O)[C@H](CCCN=C(N)N)NC(C)=O [RY Analogue, 11] (Ac-Arg-Tyr(Me)-NHEt) | 87 µM
CCNC(=O)[C@H](Cc1ccc(C#N)cc1)NC(=O)[C@H](CCCN=C(N)N)NC(C)=O [RY Analogue, 12] | 56 µM

Now from value to compound:

Ki | SMILES
59 µM | CCNC(=O)[C@H](Cc1ccc(B(O)O)cc1)NC(=O)[C@H](CCCN=C(N)N)NC(C)=O [RY Analogue, 13]
0.685 µM | CCNC(=O)[C@H](Cc1ccc([N+](=O)[O-])cc1)NC(=O)[C@H](CCCN=C(N)N)NC(C)=O [RY Analogue, 14]
145 µM | CCNC(=O)[C@H](Cc1ccc(O)cc1)N(C)C(=O)[C@H](CCCN=C(N)N)NC(C)=O [RY Analogue, 16] (Ac-Arg-[NMeY]-NHEt)
2.5 µM | CCNC(=O)[C@H](Cc1ccc([N+](=O)[O-])cc1)N(C)C(=O)[C@H](CCCN=C(N)N)NC(C)=O [RY Analogue, 17]
